This is an account of results in patent US20260207605A1, “KRAS G12D INHIBITORS AND USES THEREOF” (Abbisko Therapeutics Co., Ltd., priority 2022, published 2026).

Data set [1] relates to HPAC. As to the kind of experiment: Anti-proliferative 2D CTG assay, HPAC. In kind it is cell-based. As to conditions: Homo sapiens, 96 h, HPAC cells, 4 days incubation, read-out: HPAC cell IC50. The method, then: (§1) 1.1 Day 0 Cell Culture and Plating
(§2) Cells in a logarithmic growth phase were harvested and the cells were counted by using a […]. Cell viability was tested by using a trypan blue exclusion method to ensure that cell viability was above 90%. The cell concentration was adjusted to the desired final density, and 90 μL of cell suspension was added to a 96-well plate, then the cells were incubated overnight at 37° C., 5% CO2 and 95% humidity.
(§3) 10 μL PBS was added to each well of the TO plate containing cells. The CTG reagent was thawed and the plate was equilibrated to room temperature for 30 minutes. The CTG solution of 50 µL/well was added to each well. The cells were lysed by shaking on an orbital shaker for 5 minutes. The plate was left at room temperature for 20 minutes to stabilize the luminescence signal. The TO fluorescence signal value was read.
(§4) From the 10 mM stock solution, with a ratio of 1:5, 9-point serial dilutions were performed. The 10× medium containing the compound was transferred into corresponding wells of the 96 wells. The final maximum compound concentration was […] and the final DMSO concentration was 0.1%. The 96-well plate was placed in a 37° C. incubator and incubated for 4 days.
(§5) 50 μL/well of detection reagent (CTG) was added to the cells, and the signal was read in an Envision machine.
(§6) The percent inhibition (%) at each compound concentration was calculated from the signal in the HPE and ZPE control wells and the fluorescence signal in the individual compound wells included in each assay plate. […] The compound concentration required for inhibitory concentration at 50% (IC50) was determined using a four-parameter logarithmic dose-response equation by testing the concentration of the compound and the inhibition percentage value. The endpoint value (IC50) of the reference compound was assessed in each experiment as a quality control measure. If the endpoint value is within three times the expected value, the experiment may be considered acceptable.

Data set [2] can be described thus: Pharmacokinetic experiment in mice (single PO or IV administration). Particulars: male, ICR, mouse, plasma.
Source text: (§7) The purpose of this trial is to study the pharmacokinetic behavior of some compounds of the present invention, and the administration method is: single oral administration (PO) or intravenous administration (IV) to ICR mice.
(§8) ICR mice male N=9 original source: Shanghai Sippr-Bk Lab Animal Co., Ltd.
(§9) The compounds were weighed and dissolved in the corresponding solution (0.5% CMC+1% tween water solution or 10% PG+10% Solutol®+80% pH3 citrate buffer). The mixture was then shaken well and sonicated to prepare a 1 mg/mL stock solution. Nine mice were orally administered at a dose of 10 mg/kg or intravenously administered at a dose of 2 mg/kg after an overnight fast.
(§10) About 90 μL of blood was collected via the submandibular vein per time point, heparin sodium anticoagulant was added, the sample was placed on ice after collection, and plasma was centrifuged within 1 hour (centrifugation conditions: 8,000 rpm, 6 minutes, 2-8° C.). The blood collection timepoints were 0, 0.25, 0.5, 1, 2, 4, 6, 8 and 24 h. The samples were stored in a −20° C. refrigerator.
(§11) The plasma sample was 40 μL, 160 μL of ice-cold acetonitrile containing internal standard was added, vortexed for 3 minutes, and centrifuged at 11,000 rpm for 5 minutes. 100 μL of the supernatant was taken and added to 100 μL of water, 5 μL of the sample was taken and injected into LC/MS/MS for analysis.
Data set [3] deals with AsPC-1. The data set can be described thus: Anti-proliferative 2D CTG assay, AsPC-1. In kind it is cell-based. As to conditions: Homo sapiens, ASPC1, 96 h, AsPC-1 cells, 4 days incubation, read-out: AsPC-1 cell IC50.
Data set [4] deals with KRAS^G12D/cRAF (Homo sapiens, UniProt P01116, G12D). The data set can be described thus: KRAS G12D/cRAF binding test (Alphalisa). As to conditions: His-tagged KRAS G12D with GMPPNP, GST-tagged cRAF. (In general: In Alpha technology, singlet oxygen from a donor bead excites a nearby acceptor bead.)
The subject of data set [5] is AGS. The data set can be described thus: Anti-proliferative 2D CTG assay, AGS. In kind it is cell-based. As to conditions: Homo sapiens, AGS, 96 h, AGS cells, 4 days incubation, read-out: AGS cell IC50.
For data set [6], the system named is LS513. The data set can be described thus: Anti-proliferative 2D CTG assay, LS513. Particulars: Homo sapiens, LS-513, 96 h, LS513 cells, 4 days incubation, read-out: LS513 cell IC50. In kind it is cell-based. The procedure:
as §1, §2, §3, §4, §5, §6

Data set [7] in a line: in vivo. As to conditions: male, ICR, mouse.
Source text: as §7, §8, §9, §10, §11

Chain of KRAS^G12D/cRAF (P01116 1-188 isoform P01116-2 G12D): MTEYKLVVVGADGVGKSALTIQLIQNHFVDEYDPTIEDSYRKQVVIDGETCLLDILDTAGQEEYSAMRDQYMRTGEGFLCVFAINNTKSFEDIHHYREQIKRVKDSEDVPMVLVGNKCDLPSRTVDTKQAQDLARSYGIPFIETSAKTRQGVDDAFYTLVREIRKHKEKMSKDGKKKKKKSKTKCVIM

For the molecule `C#Cc1c(F)ccc2cc(O)cc(-c3ncc4c(N5C[C@@H]6CC[C@](C7CC7)(C5)N6)nc(OC[C@@]56CCCN5C/C(=C\F)C6)nc4c3F)c12` [Example 68, 4-(4-(1-cyclopropyl-3,8-diazabicyclo[3.2.1]octan-3-yl)-8-fluoro-2-(((S,Z)-2-(fluoromethylene)tetrahydro-1H-pyrrolizin-7a (5H)-yl)methoxy)pyrido[4,3-d]pyrimidin-7-yl)-5-ethynyl-6-fluoronaphthalen-2-ol], the IC50 in data set [1] was found to be 83.2 nM; in data set [3] it was 190 nM; in data set [4], 40.1 nM; in data set [5], 33.4 nM; in data set [6] it was 59.8 nM. Besides, the AUC came out at 813 ng·h/mL in data set [2] (iv, 2 mg/kg) and 1070 ng·h/mL in data set [2] (po, 10 mg/kg). The maximum concentration (Cmax) was found to be 887 ng/mL in data set [2] (iv, 2 mg/kg) and 300 ng/mL in data set [2] (po, 10 mg/kg). Besides, the half-life in data set [2] (iv, 2 mg/kg) is 6.3 h; in data set [2] (po, 10 mg/kg) it was 5.6 h. This molecule came in with a bioavailability in data set [2] (po, 10 mg/kg) of 26.4%.
On to `[2H]C([2H])([2H])C([2H])([2H])[C@@]12CC[C@@H](CN(c3nc(OC[C@@]45CCCN4C/C(=C\F)C5)nc4c(F)c(-c5cc(O)cc6ccc(F)c(C#C)c56)ncc34)C1)N2` [Example 71, 4-(4-((1R,5S)-1-(ethyl-d5)-3,8-diazabicyclo[3.2.1]octan-3-yl)-8-fluoro-2-(((S,Z)-2-(fluoromethylene)tetrahydro-1H-pyrrolizin-7a(5H)-yl)methoxy)pyrido[4,3-d]pyrimidin-7-yl)-5-ethynyl-6-fluoronaphthalen-2-ol], for which the IC50 was determined as 2.3 nM in data set [1]; 16.7 nM in data set [3]; 5.6 nM in data set [4]; 1.4 nM in data set [5]; 4.1 nM in data set [6]. Besides, the exposure (AUC) stood at 497 ng·h/mL in data set [2] (iv, 2 mg/kg) and 1020 ng·h/mL in data set [2] (po, 10 mg/kg). Moreover, the Cmax in data set [2] (iv, 2 mg/kg) amounted to 638 ng/mL; in data set [2] (po, 10 mg/kg) it was 461 ng/mL. The half-life was 6.6 h in data set [2] (iv, 2 mg/kg) and 4.9 h in data set [2] (po, 10 mg/kg). Besides, in data set [2] (po, 10 mg/kg), the bioavailability came out at 41.1%.
As to `[2H]C([2H])([2H])C([2H])([2H])[C@@]12CC[C@@H](CN(c3nc(OC[C@@]45CCCN4C/C(=C\F)C5)nc4c(F)c(-c5cc(N)cc6ccc(F)c(C#C)c56)ncc34)C1)N2` [Example 137, 4-(4-((1R,5S)-1-(ethyl-d5)-3,8-diazabicyclo[3.2.1]octan-3-yl)-8-fluoro-2-(((S,Z)-2-(fluoromethylene)tetrahydro-1H-pyrrolizin-7a(5H)-yl)methoxy)pyrido [4,3-d]pyrimidin-7-yl)-5-ethynyl-6-fluoronaphthalen-2-amine], the IC50 worked out at 11.7 nM in data set [1]; 37.6 nM in data set [3]; 9.5 nM in data set [4]; 9.4 nM in data set [5]; 14.4 nM in data set [6]. Also, the exposure (AUC) in data set [2] (iv, 2 mg/kg) worked out at 775 ng·h/mL; in data set [2] (po, 10 mg/kg) it was 1880 ng·h/mL. Moreover, the Cmax came to 467 ng/mL in data set [2] (iv, 2 mg/kg) and 298 ng/mL in data set [2] (po, 10 mg/kg). Moreover, the half-life was 5.9 h in data set [2] (iv, 2 mg/kg) and 2.9 h in data set [2] (po, 10 mg/kg). This molecule showed a bioavailability in data set [2] (po, 10 mg/kg) of 48.6%.
In data set [7] (iv, 2 mg/kg), `C#Cc1c(F)ccc2cc(N)cc(-c3ncc4c(N5C[C@H]6CC[C@@H](C5)N6)nc(OC[C@@]56CCCN5C/C(=C\F)C6)nc4c3F)c12` [Reference Compound 4, 4-(4-((1R,5S)-3,8-diazabicyclo [3.2.1]octan-3-yl)-8-fluoro-2-(((S,Z)-2-(fluoromethylene)tetrahydro-1H-pyrrolizin-7a(5H)-yl)methoxy)pyrido[4,3-d]pyrimidin-7-yl)-5-ethynyl-6-fluoronaphthalen-2-amine] showed an area under the curve (AUC) of 163 ng·h/mL, a Cmax of 104 ng/mL and a half-life of 8.4 h. Also, in data set [7] (po, 10 mg/kg), the AUC was determined as 52.8 ng·h/mL, the highest level (Cmax) was 14.8 ng/mL, the bioavailability was 6.5% and the half-life was 4.6 h.

As a reminder, the IC50 is the concentration needed to halve the response being measured. Broadly, the AUC is the area under the concentration-time curve, a measure of exposure. In general, Cmax refers to the peak of the concentration-time curve. As a reminder, the half-life is the time in which the quantity being followed falls by half. Lower therefore signals rapid decline. The term bioavailability denotes the share of a dose that reaches the circulation, judged against a reference dose that is usually intravenous. A higher bioavailability goes with good availability.
